Reference: patent US8906953B2, “Pyrrolidine substitute flavones for the treatment of inflammatory disorders” (Piramal Enterprises Limited, priority 2010, dated 2014)

System: ICAM-1
Experiment: TNF-α induced cell surface expression of ICAM-1 on HUVECs
Format: cell-based
Conditions: Homo sapiens, HUVEC; TNF-α (1 ng/mL) stimulated HUVECs, 4 hours, n=2
Procedure: The assay was designed as in reference, Transplantation, 1997, 63(5), 759-764, the disclosure of which is incorporated herein by reference for the teaching of the assay.
Human umbilical vein endothelial cells (HUVECs) were obtained from Cascade Biologics (Oregon-USA). Cells were cultured in M-200 medium (Cascade Biologics) supplemented with low serum growth supplements (LSGS) (Cascade Biologics), penicillin-G (100 U/mL), streptomycin (100 μg/mL) and amphotericin B (50 ng/mL) (GIBCO). […] After TNF-α stimulation (1 ng/mL) (R&D Systems (Minneapolis, Minn.)) for 4 hours at 37° C. in an atmosphere of 5% CO2, supernatants were harvested and assayed for the expression of ICAM-1 (intercellular cell adhesion molecules), whereas the expressions of VCAM-1 (vascular cell adhesion molecules) and E-selectin were evaluated after 6 hours of stimulation. […] To quantitatively measure the amount of cell surface expressions of ICAM-1, VCAM-1 and E-selectin, ELISA assay was performed using anti-ICAM-1 (clone BBIG-I1), anti-VCAM-1 (clone BBIG-V1), anti-E-selectin (clone BBIG-E4) antibodies, isotype control mouse IgG1 (clone 11711.11) and the secondary antibody (anti-mouse IgG-HRP antibody) which were procured from R&D Systems (Minneapolis, Minn., USA). […]

Question: `CN1CC[C@@H](c2c(O)cc(O)c3c(=O)cc(-c4ccc(C(F)(F)F)cc4Cl)oc23)[C@@H]1CO.Cl` [Compound of example 3, (+)-trans-2-(2-Chloro-4-trifluoromethyl-phenyl)-5,7-dihydroxy-8-(2-hydroxymethyl-1-methyl-pyrrolidin-3-yl)-chromen-4-one hydrochloride] was tested. Which IC50 did it give?
Answer: 670 nM
